{
  "source": "patent US20220265776A1",
  "about": "“COMBINATION” (GENESIS PHARMA SA, priority 2019, published 2022)",
  "key": {"[1]": {"system": "rat model of transient middle cerebral artery occlusion", "experiment": "Rat t-MCAO: brain infarct size (TTC staining, ImageJ)", "format": "in vivo", "conditions": "for Relative brain infarct volume on Day 7 (%) (mean + SD) / percentage change of relative brain infarct volume on Day 7 vs the control group: repeated administration (7 days); for efficacy when administered as monotherapies: low doses, monotherapy", "description": "(§1) Test compounds were administrated intravenously 20 minutes before reperfusion and then twice a day thereafter for six consecutive days. The modified neurological severity score (NSS) was graded on a scale of 0 to 18 (in which normal score was 0 and maximal deficit score was represented by 18), on Study Day 2 (one day following surgery) and on Study Day 7 (7 days post-surgery and before study termination); it included a set of clinical-neurological tests (composite of motor, sensory, reflex and balance tests). At study termination brains were harvested, sliced into five 2 mm thick coronal sections and stained with triphenyl tetrazolium chloride (TTC) for infarct size measurement using ImageJ program. Morbidity, mortality, body weight and clinical observation were also recorded. […] The statistical significance (P) of treated groups vs the untreated control group was determined using two-way ANOVA followed by Bonferroni post hoc test, using GraphPad Prism 5 program.\n(§2) Due to mortality in some of the groups, the numbers within the groups were adjusted to have sufficient animals in all the groups.\n(§3) In study Part II, a total of 86 SD male rats (270-320 gr upon arrival) were divided into 9 groups (7 or 15 rats per treated group and 6 rats in the control group). Due to mortality in some of the groups, the numbers within the groups were adjusted to have sufficient animals in all the groups."}, "[2]": {"system": "rat model of transient middle cerebral artery occlusion", "experiment": "Rat t-MCAO: modified neurological severity score (NSS), scale 0 to 18", "format": "in vivo", "conditions": "for Modified NSS on Day 2 (mean + SD) / Modified NSS on Day 7 (mean + SD) / percentage change of Modified NSS on Day 2 vs the control group / percentage change of Modified NSS on Day 7 vs the control group: repeated administration (7 days); for modified neurological severity score (NSS) compared with the control group on Day 2 / modified neurological severity score (NSS) compared with the control group on Day 7: monotherapy", "description": "as §1, §2, §3"}, "[3]": {"system": "rat thromboembolic model of stroke", "conditions": "continuous infusion (75 ng/h), at 7 days post middle cerebral artery occlusion; cited from earlier work"}, "[4]": {"system": "rat model of stroke (middle cerebral artery occlusion)", "conditions": "10 μg/kg IP loading dose plus 200 ng/h sc infusion beginning 4.5 h or 10 h after onset of ischemia; cited from earlier work"}, "[5]": {"conditions": "Treatment F: potassium canrenoate 1 mg/Kg iv"}, "[6]": {"conditions": "Treatment G: potassium canrenoate 3 mg/Kg iv"}, "[7]": {"conditions": "Treatment H: potassium canrenoate 10 mg/Kg iv"}, "[8]": {"conditions": "lowest doses (treatments A, E and I)"}, "[9]": {"conditions": "Treatment I: glibenclamide 1 μg/Kg iv"}, "[10]": {"conditions": "Treatment J: glibenclamide 3 μg/Kg iv"}, "[11]": {"conditions": "Treatment K: glibenclamide 10 μg/Kg iv"}, "[12]": {"conditions": "Treatment L: glibenclamide 30 μg/Kg iv"}},
  "data": [
    {"compound": "C[C@]12CCC(=O)C=C1C=C[C@@H]1[C@@H]2CC[C@@]2(C)[C@H]1CC[C@@]2(O)CCC(=O)[O-].[K+]", "note": "[POTASSIUM CANRENOATE, potassium 3-[(8R,9S,10R,13S,14S,17R)-17-hydroxy-10,13-dimethyl-3-oxo-2,8,9,11,12,14,15,16 octahydro-1H-cyclopenta[a]phenanthren-17-yl]propanoate]", "values": [
      {"measurement": "Relative brain infarct volume on Day 7 (%) (mean + SD)", "setting": "[1]; [5]", "value": "15 ± 6", "unit": "%"},
      {"measurement": "percentage change of relative brain infarct volume on Day 7 vs the control group", "setting": "[1]; [5]", "value": "[−64%; ***]"},
      {"measurement": "Relative brain infarct volume on Day 7 (%) (mean + SD)", "setting": "[1]; [6]", "value": "28 ± 11", "unit": "%"},
      {"measurement": "percentage change of relative brain infarct volume on Day 7 vs the control group", "setting": "[1]; [6]", "value": "[−33%; **]"},
      {"measurement": "Relative brain infarct volume on Day 7 (%) (mean + SD)", "setting": "[1]; [7]", "value": "12 ± 3", "unit": "%"},
      {"measurement": "percentage change of relative brain infarct volume on Day 7 vs the control group", "setting": "[1]; [7]", "value": "[−71%; ***]"},
      {"measurement": "efficacy when administered as monotherapies", "setting": "[1]", "value": "ineffective"},
      {"measurement": "Modified NSS on Day 2 (mean + SD)", "setting": "[2]; [5]", "value": "12 ± 3"},
      {"measurement": "Modified NSS on Day 7 (mean + SD)", "setting": "[2]; [5]", "value": "8 ± 1"},
      {"measurement": "percentage change of Modified NSS on Day 2 vs the control group", "setting": "[2]; [5]", "value": "[−14%; *]"},
      {"measurement": "percentage change of Modified NSS on Day 7 vs the control group", "setting": "[2]; [5]", "value": "[−38%; ***]"},
      {"measurement": "Modified NSS on Day 2 (mean + SD)", "setting": "[2]; [6]", "value": "11 ± 2"},
      {"measurement": "Modified NSS on Day 7 (mean + SD)", "setting": "[2]; [6]", "value": "10 ± 2"},
      {"measurement": "percentage change of Modified NSS on Day 2 vs the control group", "setting": "[2]; [6]", "value": "[−21%; *]"},
      {"measurement": "percentage change of Modified NSS on Day 7 vs the control group", "setting": "[2]; [6]", "value": "[−23%; *]"},
      {"measurement": "Modified NSS on Day 2 (mean + SD)", "setting": "[2]; [7]", "value": "10 ± 1"},
      {"measurement": "Modified NSS on Day 7 (mean + SD)", "setting": "[2]; [7]", "value": "8 ± 1"},
      {"measurement": "percentage change of Modified NSS on Day 2 vs the control group", "setting": "[2]; [7]", "value": "[−29%; **]"},
      {"measurement": "percentage change of Modified NSS on Day 7 vs the control group", "setting": "[2]; [7]", "value": "[−38%; ***]"},
      {"measurement": "modified neurological severity score (NSS) compared with the control group on Day 2", "setting": "[2]; [8]", "value": "did not show a statistically significant decrease"},
      {"measurement": "modified neurological severity score (NSS) compared with the control group on Day 7", "setting": "[2]; [8]", "value": "did not show a statistically significant decrease"}
    ]},
    {"compound": "COc1ccc(Cl)cc1C(=O)NCCc1ccc(S(=O)(=O)NC(=O)NC2CCCCC2)cc1", "note": "[GLIBENCLAMIDE, 5-chloro-N-[2-[4-(cyclohexylcarbamoyl-sulfamoyl)phenyl]ethyl]-2-methoxybenzamide]", "values": [
      {"measurement": "Relative brain infarct volume on Day 7 (%) (mean + SD)", "setting": "[1]; [9]", "value": "33 ± 10", "unit": "%"},
      {"measurement": "percentage change of relative brain infarct volume on Day 7 vs the control group", "setting": "[1]; [9]", "value": "[−21%; NS]"},
      {"measurement": "Relative brain infarct volume on Day 7 (%) (mean + SD)", "setting": "[1]; [10]", "value": "19 ± 9", "unit": "%"},
      {"measurement": "percentage change of relative brain infarct volume on Day 7 vs the control group", "setting": "[1]; [10]", "value": "[−55%; ***]"},
      {"measurement": "Relative brain infarct volume on Day 7 (%) (mean + SD)", "setting": "[1]; [11]", "value": "16 ± 9", "unit": "%"},
      {"measurement": "percentage change of relative brain infarct volume on Day 7 vs the control group", "setting": "[1]; [11]", "value": "[−62%; ***]"},
      {"measurement": "Relative brain infarct volume on Day 7 (%) (mean + SD)", "setting": "[1]; [12]", "value": "17 ± 8", "unit": "%"},
      {"measurement": "percentage change of relative brain infarct volume on Day 7 vs the control group", "setting": "[1]; [12]", "value": "[−60%; ***]"},
      {"measurement": "efficacy when administered as monotherapies", "setting": "[1]", "value": "ineffective"},
      {"measurement": "modified neurological severity score (NSS) compared with the control group on Day 2", "setting": "[2]; 3 μg/kg dose (treatment J)", "value": "did not show a statistically significant decrease"},
      {"measurement": "Modified NSS on Day 2 (mean + SD)", "setting": "[2]; [9]", "value": "14 ± 1"},
      {"measurement": "Modified NSS on Day 7 (mean + SD)", "setting": "[2]; [9]", "value": "12 ± 1"},
      {"measurement": "percentage change of Modified NSS on Day 2 vs the control group", "setting": "[2]; [9]", "value": "[0%; NS]"},
      {"measurement": "percentage change of Modified NSS on Day 7 vs the control group", "setting": "[2]; [9]", "value": "[−8%; NS]"},
      {"measurement": "Modified NSS on Day 2 (mean + SD)", "setting": "[2]; [10]", "value": "13 ± 3"},
      {"measurement": "Modified NSS on Day 7 (mean + SD)", "setting": "[2]; [10]", "value": "10 ± 1"},
      {"measurement": "percentage change of Modified NSS on Day 2 vs the control group", "setting": "[2]; [10]", "value": "[−7%; NS]"},
      {"measurement": "percentage change of Modified NSS on Day 7 vs the control group", "setting": "[2]; [10]", "value": "[−23%; *]"},
      {"measurement": "Modified NSS on Day 2 (mean + SD)", "setting": "[2]; [11]", "value": "11 ± 3"},
      {"measurement": "Modified NSS on Day 7 (mean + SD)", "setting": "[2]; [11]", "value": "8 ± 2"},
      {"measurement": "percentage change of Modified NSS on Day 2 vs the control group", "setting": "[2]; [11]", "value": "[−21%; **]"},
      {"measurement": "percentage change of Modified NSS on Day 7 vs the control group", "setting": "[2]; [11]", "value": "[−38%; ***]"},
      {"measurement": "Modified NSS on Day 2 (mean + SD)", "setting": "[2]; [12]", "value": "11 ± 3"},
      {"measurement": "Modified NSS on Day 7 (mean + SD)", "setting": "[2]; [12]", "value": "8 ± 1"},
      {"measurement": "percentage change of Modified NSS on Day 2 vs the control group", "setting": "[2]; [12]", "value": "[−21%; **]"},
      {"measurement": "percentage change of Modified NSS on Day 7 vs the control group", "setting": "[2]; [12]", "value": "[−38%; ***]"},
      {"measurement": "modified neurological severity score (NSS) compared with the control group on Day 2", "setting": "[2]; [8]", "value": "did not show a statistically significant decrease"},
      {"measurement": "modified neurological severity score (NSS) compared with the control group on Day 7", "setting": "[2]; [8]", "value": "did not show a statistically significant decrease"},
      {"measurement": "reduction of cerebral edema, infarct volume and mortality", "setting": "[3]", "value": 50, "unit": "%"},
      {"measurement": "hemispheric swelling at 24 h and 48-h mortality", "setting": "[4]", "value": "significantly reduced"}
    ]}
  ]
}
